# Reference: patent US8722910B2, “Diyne compositions” (Evolva AG, priority 2009, dated 2014)
# Tests used:
# [1] = Stability of diyne salts on storage (HPLC content); assay type: physicochemical; conditions: crystalline solid
# Method: Potassium (Z)-14-(furan-2-yl)tetradeca-9-en-11,13-diynoate was kept as a crystalline solid for 6 month at 2-8° C. The content of potassium (Z)-14-(furan-2-yl)tetradeca-9-en-11,13-diynoate was determined by HPLC against a reference sample kept at −20° C. After 6 months of storage characteristics such as colour, water content, XRPD profile, of the solid had not changed and it was still a beige solid. […] Also no change in the impurity profile was observed after 6 months storage.
# Potassium (Z)-14-(furan-2-yl)tetradeca-9-en-11,13-diynoate was also kept as a crystalline solid for 6 month at 25° C., 60% RH. Analysis was performed as described above. After 6 months of storage characteristics of the solid has not changed and it was still a beige solid. […] Also no change in the impurity profile was observed after 6 months storage.
# Potassium (Z)-14-(furan-2-yl)tetradeca-9-en-11,13-diynoate was also kept as a crystalline solid for 6 month at 40° C., 75% RH. Analysis was performed as described above. After 6 months of storage the appearance of the solid had changed to a brown solid. Furthermore, a decrease in the content of potassium (Z)-14-(furan-2-yl)tetradeca-9-en-11,13-diynoate to 96% was observed as analysed by HPLC.
# Sodium (Z)-14-(furan-2-yl)tetradeca-9-en-11,13-diynoate was kept as an amorphous solid at room temperature. […] Furthermore the salt was dissolved in an aqueous solution and already after few days the content of sodium (Z)-14-(furan-2-yl)tetradeca-9-en-11,13-diynoate was reduced by 35%, thus proving strong instability of the amorphous salt form.
# A. fumigatus = assay: Susceptibility of clinical Aspergillus isolates (MIC); assay type: cell-based
# Method: (§1) The efficacy of compound IV″ was investigated on 563 clinical isolates of 33 human fungal pathogens. […] For species with n≧10, the MIC90 (MIC, minimal inhibitory concentration) is given as ng/ml. For species with n≦10, the MIC range is given as ng/ml. 24 h and 48 h reads are indicated (Table 1).
# (§2) Susceptibilities were determined according to the CLSI reference method M38-A2.
# A. versicolor = assay: as above; assay type: cell-based
# Method: as §1, §2
# A. nidulans = assay: as above; assay type: cell-based; conditions: 24 h
# Method: as §1, §2
# A. terreus = assay: as above; assay type: cell-based
# Method: as §1, §2
# [2] = Aqueous solubility (equilibrated 25° C., 24 hours, HPLC); assay type: physicochemical; conditions: water, thermodynamic from solid
# Method: The potassium salt was furthermore submitted to a solubility determination. Aqueous solubility was determined by suspending sufficient compound in water to give a maximum final concentration of ≧100 mg.m1-1 of the parent free-form of the compound. The suspension was equilibrated at 25° C. for 24 hours then the pH was measured. The suspension was then filtered through a glass fibre C filter into a 96 well plate. The filtrate was then diluted by a factor of 101. Quantification was by HPLC with reference to a standard solution of approximately 0.1 mg.ml-1. in DMSO. Different volumes of the standard, diluted and undiluted sample solutions were injected. The solubility was calculated using the peak areas determined by integration of the peak found at the same retention time as the principal peak in the standard injection. Analysis was performed on an Agilent HP1100 series system equipped with a diode array detector and using ChemStation software vB.02.01-SR1.
# Cytochrome P450 2C8 = Cytochrome P450 2C8 (Homo sapiens, UniProt P10632); assay: Inhibition of cytochrome P450 enzymes; assay type: in vitro ADME; conditions: substrate paclitaxel
# Chain of Cytochrome P450 2C8 (P10632 whole entry): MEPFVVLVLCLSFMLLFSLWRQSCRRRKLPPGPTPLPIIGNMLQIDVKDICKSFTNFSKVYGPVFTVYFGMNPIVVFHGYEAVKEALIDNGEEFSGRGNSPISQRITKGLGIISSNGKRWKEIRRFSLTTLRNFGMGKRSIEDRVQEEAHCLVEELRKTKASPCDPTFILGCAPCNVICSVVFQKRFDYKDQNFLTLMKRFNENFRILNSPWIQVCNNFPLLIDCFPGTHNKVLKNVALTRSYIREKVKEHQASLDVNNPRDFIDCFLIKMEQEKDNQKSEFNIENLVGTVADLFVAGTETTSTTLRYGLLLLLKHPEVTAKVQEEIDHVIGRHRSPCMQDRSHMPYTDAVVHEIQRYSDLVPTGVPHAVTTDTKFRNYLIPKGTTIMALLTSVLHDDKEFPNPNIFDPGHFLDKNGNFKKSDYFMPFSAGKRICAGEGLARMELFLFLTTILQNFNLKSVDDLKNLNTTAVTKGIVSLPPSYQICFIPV
# Method: (§3) Peak areas corresponding to the metabolite of each substrate were recorded. The percent of control activity was then calculated by comparing the peak area obtained in the presence of the diyne potassium salt and in the absence.
# CYP3A = assay: Inhibition of cytochrome P450 enzymes; assay type: in vitro ADME; conditions: human
# Method: as §3
# Cytochrome P450 2D6 = Cytochrome P450 2D6 (Homo sapiens, UniProt P10635); assay: Inhibition of cytochrome P450 enzymes; assay type: in vitro ADME; conditions: substrate dextromethorphan
# Chain of Cytochrome P450 2D6 (P10635 whole entry): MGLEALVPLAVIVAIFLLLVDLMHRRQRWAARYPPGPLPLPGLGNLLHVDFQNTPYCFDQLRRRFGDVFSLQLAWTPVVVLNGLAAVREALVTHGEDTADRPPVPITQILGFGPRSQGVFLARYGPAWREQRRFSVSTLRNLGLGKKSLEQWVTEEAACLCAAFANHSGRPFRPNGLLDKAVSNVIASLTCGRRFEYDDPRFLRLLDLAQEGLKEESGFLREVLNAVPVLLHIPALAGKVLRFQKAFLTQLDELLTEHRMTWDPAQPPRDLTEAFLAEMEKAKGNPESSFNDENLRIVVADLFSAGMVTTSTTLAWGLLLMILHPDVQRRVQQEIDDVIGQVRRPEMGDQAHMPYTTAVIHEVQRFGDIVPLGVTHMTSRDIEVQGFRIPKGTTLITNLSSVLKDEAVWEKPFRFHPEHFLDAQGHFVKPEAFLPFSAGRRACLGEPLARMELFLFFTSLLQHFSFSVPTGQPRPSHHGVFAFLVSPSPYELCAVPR
# Method: as §3
# Cytochrome P450 2B6 = Cytochrome P450 2B6 (Homo sapiens, UniProt P20813); assay: Inhibition of cytochrome P450 enzymes; assay type: in vitro ADME; conditions: substrate bupropion
# Chain of Cytochrome P450 2B6 (P20813 whole entry): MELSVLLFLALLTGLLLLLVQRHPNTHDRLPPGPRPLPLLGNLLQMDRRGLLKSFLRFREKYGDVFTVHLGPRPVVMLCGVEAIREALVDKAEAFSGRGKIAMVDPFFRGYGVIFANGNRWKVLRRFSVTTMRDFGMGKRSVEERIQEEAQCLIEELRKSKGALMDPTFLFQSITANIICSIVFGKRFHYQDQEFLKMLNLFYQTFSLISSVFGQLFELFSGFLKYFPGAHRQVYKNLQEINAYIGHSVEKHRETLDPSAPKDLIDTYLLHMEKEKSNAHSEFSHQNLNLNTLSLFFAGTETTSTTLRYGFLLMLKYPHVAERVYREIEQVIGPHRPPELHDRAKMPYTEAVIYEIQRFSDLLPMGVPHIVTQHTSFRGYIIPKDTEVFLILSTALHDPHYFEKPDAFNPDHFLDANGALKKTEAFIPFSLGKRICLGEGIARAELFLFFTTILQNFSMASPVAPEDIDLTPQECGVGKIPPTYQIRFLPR
# Method: as §3
# Cytochrome P450 2C9 = Cytochrome P450 2C9 (Homo sapiens, UniProt P11712); assay: Inhibition of cytochrome P450 enzymes; assay type: in vitro ADME; conditions: substrate diclofenac
# Chain of Cytochrome P450 2C9 (P11712 whole entry): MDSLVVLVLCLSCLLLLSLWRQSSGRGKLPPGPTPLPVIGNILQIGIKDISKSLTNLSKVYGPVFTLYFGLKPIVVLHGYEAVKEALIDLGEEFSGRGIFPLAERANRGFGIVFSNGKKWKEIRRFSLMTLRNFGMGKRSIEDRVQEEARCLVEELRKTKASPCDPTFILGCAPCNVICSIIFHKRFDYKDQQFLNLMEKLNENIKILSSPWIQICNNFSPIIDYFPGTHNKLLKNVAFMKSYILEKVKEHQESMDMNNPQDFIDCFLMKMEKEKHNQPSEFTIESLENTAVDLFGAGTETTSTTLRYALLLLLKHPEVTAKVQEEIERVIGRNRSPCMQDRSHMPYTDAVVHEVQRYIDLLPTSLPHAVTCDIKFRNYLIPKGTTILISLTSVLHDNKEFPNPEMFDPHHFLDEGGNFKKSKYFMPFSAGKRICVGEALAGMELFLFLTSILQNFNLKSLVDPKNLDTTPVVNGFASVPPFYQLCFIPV
# Method: as §3
# Cytochrome P450 2C19 = Cytochrome P450 2C19 (Homo sapiens, UniProt P33261); assay: Inhibition of cytochrome P450 enzymes; assay type: in vitro ADME; conditions: substrate omeprazole
# Chain of Cytochrome P450 2C19 (P33261 whole entry): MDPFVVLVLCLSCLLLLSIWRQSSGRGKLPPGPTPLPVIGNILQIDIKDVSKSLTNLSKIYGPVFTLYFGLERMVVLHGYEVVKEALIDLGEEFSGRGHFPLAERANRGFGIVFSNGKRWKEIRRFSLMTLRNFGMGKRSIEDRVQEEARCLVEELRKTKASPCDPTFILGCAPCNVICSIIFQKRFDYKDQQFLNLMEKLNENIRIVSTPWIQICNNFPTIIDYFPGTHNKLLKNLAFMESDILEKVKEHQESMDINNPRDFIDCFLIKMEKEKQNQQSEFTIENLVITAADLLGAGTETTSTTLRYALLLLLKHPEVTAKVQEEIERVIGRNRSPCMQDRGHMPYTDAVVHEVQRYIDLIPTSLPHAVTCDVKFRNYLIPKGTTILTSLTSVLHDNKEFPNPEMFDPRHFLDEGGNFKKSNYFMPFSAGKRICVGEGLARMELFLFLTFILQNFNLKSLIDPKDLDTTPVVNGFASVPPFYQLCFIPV
# Method: as §3
# M. gallinae = assay: In vitro antifungal activity vs. dermatophytes (MIC/MFC); assay type: cell-based; conditions: M. gallinae (n = 1)
# Malassezia furfur = assay: In vitro antifungal activity vs. yeasts (MIC/MFC); assay type: cell-based; conditions: Malassezia furfur (n = 1)
# Candida albicans [3] = assay: Mouse vaginal infection, topical dosing; assay type: in vivo; conditions: mice; topically 0.01% daily for five days
# Method: The efficacy of compound III″ in vaginal infections of small mammals has been shown. Mice were vaginally infected with Candida albicans. Compound III″ was administered topically at 0.01% daily for five days. Fungal burden decreased 86% compared to the untreated control (see FIG. 14 showing vaginal fungal burden as determined by colony forming units (CFU) from vaginal lavage fluid).
# Candida albicans [4] = assay: In vitro antifungal activity vs. yeasts (MIC/MFC); assay type: cell-based; conditions: Candida albicans (n = 8)
# [5] = Solubility in water (incremental addition, 50° C.); assay type: physicochemical; conditions: 10 mg, water added up to 50 μl
# Method: Solubility in water was determined. This was carried out by transferring 10 mg of the material into 1.5 ml HPLC vials. Then 10 μl (1 vol) of water was added. The sample was then isothermally held at 50° C. with stirring for 30 mins. The process was continued up to 50 μl by 10 μl increments with heating to 50° C. in between.
smiles,measurement,setting,value
"O=C([O-])CCCCCCC/C=C\C#CC#Cc1ccco1.[K+] [Compound IV″, potassium (Z)-14-(furan-2-yl)tetradeca-9-en-11,13-diynoate]",content after storage (HPLC),[1]; 6 month at 2-8° C.,had not significantly changed
same,content after storage (HPLC),"[1]; 6 month at 25° C., 60% RH",had not changed significantly
same,"content after storage (HPLC), decrease to","[1]; 6 month at 40° C., 75% RH",96%
same,MIC90/MIC range 24 h,"A. fumigatus; A. fumigatus (n = 40), MIC90, 24 h",160 ng/mL
same,MIC90/MIC range 48 h,"A. fumigatus; A. fumigatus (n = 40), MIC90, 48 h",1280 ng/mL
same,MIC50,"A. fumigatus; Aspergillus fumigatus, 24 h",80 ng/mL
same,MIC90/MIC range 24 h,"A. versicolor; A. versicolor (n = 4), MIC range, 24 h",80 to 2560 ng/mL
same,MIC90/MIC range 48 h,"A. versicolor; A. versicolor (n = 4), MIC range, 48 h",160 to 5120 ng/mL
same,MIC50,"A. versicolor; Aspergillus versicolor, 24 h",1280 ng/mL
same,MIC50,A. nidulans,5120 ng/mL
same,MIC90/MIC range 24 h,"A. terreus; A. terreus (n = 5), MIC range",10 to 20 ng/mL
same,MIC50,"A. terreus; Aspergillus terreus, 24 h",10 ng/mL
same,solubility at 24 h,[2],> 96.5 mg/mL
same,IC50,Cytochrome P450 2C8,> 100 µM
same,% control at 10 μM,Cytochrome P450 2C8; 10 μM,84%
same,IC50,"CYP3A; probe midazolam, substrate midazolam",45 µM
same,IC50,"CYP3A; probe testosterone, substrate testosterone",57 µM
same,IC50,Cytochrome P450 2D6,> 100 µM
same,% control at 10 μM,Cytochrome P450 2D6; 10 μM,88%
same,IC50,Cytochrome P450 2B6,24 µM
same,% control at 10 μM,Cytochrome P450 2B6; 10 μM,82%
same,IC50,Cytochrome P450 2C9,18 µM
same,% control at 10 μM,Cytochrome P450 2C9; 10 μM,74%
same,IC50,Cytochrome P450 2C19,32 µM
same,% control at 10 μM,Cytochrome P450 2C19; 10 μM,84%
O=C(O)CCCCCCC/C=C\C#CC#Cc1ccco1 [Compound III″],MIC,"M. gallinae; 96 h, 35° C., 4 days",< 0.06 ng/mL
same,MFC,M. gallinae,4000 ng/mL
same,MIC90/MIC range 48 h,M. gallinae; 48 h,<0.06 ng/mL
same,MFC,Malassezia furfur,< 0.06 ng/mL
same,MIC,"Malassezia furfur; 90% inhibition endpoint, read-out: MIC",< 0.06 ng/mL
same,"decrease of vaginal fungal burden (CFU, lavage fluid)",Candida albicans [3],86%
same,MFC,Candida albicans [4],< 0.06 ng/mL
same,MIC,Candida albicans [4]; 90% inhibition endpoint,< 0.06 ng/mL
same,solubility in water,[5],still did not dissolve
